Legend:
Format in all cases: biochemical
[1] = molecular target: T1, recombinant human TRKA (G595R) (Homo sapiens, UniProt P04629, G595R); assay: In vitro activity test on mutant TRKA (G595R) (HTRF KinEASE TK); details: 4.5 μM ATP, 30 min
T1 construct: purchased SignalChem
Method: (§1) Biological Test Example 2 In Vitro Activity Test on Mutant TRKA (G595R), TRKA (G667C) and TRKC (G623R)
(§2) The recombinant human TRKA (G595R), TRKA (G667C) and TRKC (G623R) proteins were purchased from SignalChem. HTRF kinEASE TK kit was purchased from CisbioBioassays. Synergy Neo 2 of Biotek was used to read the plate.
(§3) The tested compound was subjected to 4-fold serial dilution to reach a final concentration of 1 μM to 0.004 nM (10 concentrates), duplicates for each concentration; and 1% DMSO was present in the detection reaction.
0.12 ng/μL TRKA (G595R) kinase, 1 μM TK Substrate-biotin polypeptide substrate, 4.5 μM ATP, 1× enzymatic buffer, 5 mM MgCl2, and 1 mm DTT. The detection plate was White Proxiplate384-Plus plate (PerkinElmer), and incubated at room temperature for 30 min, and the assay volume was 10 μL.
(§4) 10 μL of detection reagent was added to the plate (containing 0.125 μM SA-XL665 and 5 μL 1×TK-Antibody) and incubated overnight at room temperature, and Synergy Neo 2 was used to read the plate.
(§5) The value of 665/620 Ratio minus the value of negative control wells without enzyme, then the obtained value was converted according to the following formula into inhibition rate (%)=(1−Ratiotest/Ratiomax)×100%. Ratiomax was a positive control without tested compound, and Ratiotest was the value of each concentration of different compounds. IC50 (nM) data was obtained by 4 parameter curve fitting (see Table 1).

Recombinant human TRKB = molecular target: T2, Recombinant human TRKB (Homo sapiens, UniProt Q16620); assay: In vitro activity test on TRKB kinase (HTRF KinEASE TK); details: 4.77 μM ATP, 50 min
T2 construct: purchased Carna Biosciences
T2 sequence (Q16620 32-822): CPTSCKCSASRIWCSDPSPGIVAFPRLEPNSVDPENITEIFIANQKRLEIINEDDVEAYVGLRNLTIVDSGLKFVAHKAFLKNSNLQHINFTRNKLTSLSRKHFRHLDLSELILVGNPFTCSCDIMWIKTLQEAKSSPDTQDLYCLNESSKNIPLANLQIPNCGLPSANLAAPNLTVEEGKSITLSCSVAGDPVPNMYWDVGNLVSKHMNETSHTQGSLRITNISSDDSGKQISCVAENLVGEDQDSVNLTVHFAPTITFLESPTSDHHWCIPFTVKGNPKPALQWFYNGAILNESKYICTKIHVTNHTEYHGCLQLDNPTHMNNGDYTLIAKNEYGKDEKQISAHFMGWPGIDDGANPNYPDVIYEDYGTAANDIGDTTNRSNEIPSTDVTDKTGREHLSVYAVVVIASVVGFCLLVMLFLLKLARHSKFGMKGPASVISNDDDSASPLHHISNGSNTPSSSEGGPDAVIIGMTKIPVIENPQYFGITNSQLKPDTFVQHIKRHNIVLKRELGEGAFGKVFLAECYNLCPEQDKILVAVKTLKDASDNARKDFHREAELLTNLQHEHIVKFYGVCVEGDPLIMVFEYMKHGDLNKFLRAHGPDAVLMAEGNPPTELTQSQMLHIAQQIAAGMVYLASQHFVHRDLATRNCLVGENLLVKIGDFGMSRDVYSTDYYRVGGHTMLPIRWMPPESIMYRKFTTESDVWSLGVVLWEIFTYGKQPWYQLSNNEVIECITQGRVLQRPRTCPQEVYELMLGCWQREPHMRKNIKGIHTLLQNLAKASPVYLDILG
Method: (§6) Biological Test Example 1 In Vitro Activity Test on TRKA, TRKB, TRKC Kinase
(§7) Recombinant human TRKA, TRKB, TRKC proteins were purchased from Carna Biosciences. HTRF KinEASE TK kit was purchased from Cisbio Bioassays. Synergy Neo 2 of Biotek was used to read the plate.
(§8) The tested compound was subjected to 3-fold serial dilution to reach a final concentration of 1 μM to 0.05 nM (10 concentrations), duplicates for each concentration; and the DMSO concentration in the detection reaction was 1%.
0.037 ng/μL TRKB protein kinase, 1 μM TK Substrate-biotin polypeptide substrate, 4.77 μM ATP, 1× enzymatic buffer, 5 mM MgCl2, and 1 mM DTT. The detection plate was White Proxiplate 384-Plus plate (PerkinElmer), and incubated at room temperature for 50 min, and the assay volume was 10 μL.
as §4
as §5, with “The” for “The value of”, “Ratio” for “Ratio minus the value of negative control wells without enzyme, then the obtained value”

Recombinant human TRKA = molecular target: T3, Recombinant human TRKA (Homo sapiens, UniProt P04629); assay: In vitro activity test on TRKA kinase (HTRF KinEASE TK); details: 14.68 μM ATP, 40 min
T3 construct: purchased Carna Biosciences
T3 sequence (P04629 33-796): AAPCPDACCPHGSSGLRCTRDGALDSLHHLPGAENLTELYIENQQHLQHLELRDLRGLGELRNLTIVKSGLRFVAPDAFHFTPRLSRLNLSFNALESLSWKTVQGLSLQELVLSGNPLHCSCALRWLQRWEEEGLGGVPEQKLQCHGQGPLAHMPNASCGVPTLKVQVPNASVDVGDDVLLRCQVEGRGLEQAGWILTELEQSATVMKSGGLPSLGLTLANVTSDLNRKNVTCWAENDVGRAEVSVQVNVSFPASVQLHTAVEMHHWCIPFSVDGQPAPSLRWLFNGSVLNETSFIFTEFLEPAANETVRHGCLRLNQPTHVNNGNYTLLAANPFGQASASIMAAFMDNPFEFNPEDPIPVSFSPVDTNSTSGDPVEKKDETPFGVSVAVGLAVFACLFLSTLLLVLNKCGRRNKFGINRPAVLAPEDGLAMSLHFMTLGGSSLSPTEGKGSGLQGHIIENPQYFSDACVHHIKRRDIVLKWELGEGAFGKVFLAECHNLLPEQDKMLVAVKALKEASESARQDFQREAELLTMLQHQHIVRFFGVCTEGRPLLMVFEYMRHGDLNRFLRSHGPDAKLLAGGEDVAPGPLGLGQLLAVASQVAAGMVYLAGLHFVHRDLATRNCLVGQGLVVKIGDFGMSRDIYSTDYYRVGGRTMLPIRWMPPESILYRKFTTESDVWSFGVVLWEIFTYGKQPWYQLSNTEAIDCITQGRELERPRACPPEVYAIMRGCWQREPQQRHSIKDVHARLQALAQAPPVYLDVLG
Method: as §6, §7, §8
0.2 ng/μL TRKA protein kinase, 1 μM TK Substrate-biotin polypeptide substrate, 14.68 μM ATP, 1× enzymatic buffer, 5 mM MgCl2, and 1 mM DTT. The detection plate was White Proxiplate384-Plus plate (PerkinElmer), and incubated at room temperature for 40 min, and the assay volume was 10 μL.
as §4
as §5, with “The” for “The value of”, “Ratio” for “Ratio minus the value of negative control wells without enzyme, then the obtained value”

[2] = molecular target: T4, recombinant human TRKA (G667C) (Homo sapiens, UniProt P04629, G667C); assay: In vitro activity test on mutant TRKA (G667C) (HTRF KinEASE TK); details: 5.5 μM ATP, 30 min
T4 construct: purchased SignalChem
T4 sequence (P04629 33-796 G667C): as the sequence (P04629 33-796) above, with G635C counted along it
Method: as §1, §2, §3
0.026 ng/μL TRKA (G667C) kinase, 1 μM TK Substrate-biotin polypeptide substrate, 5.5 μm ATP, 1× enzymatic buffer, 5 mM MgCl2, and 1 mM DTT. The detection plate was White Proxiplate 384-Plus plate (PerkinElmer), and incubated at room temperature for 30 min, the assay volume was 10 μL.
as §4, §5

Recombinant human TRKC = molecular target: T5, Recombinant human TRKC (Homo sapiens, UniProt Q16288); assay: In vitro activity test on TRKC kinase (HTRF KinEASE TK); details: 25.64 μM ATP, 40 min
T5 construct: purchased Carna Biosciences
T5 sequence (Q16288 32-839): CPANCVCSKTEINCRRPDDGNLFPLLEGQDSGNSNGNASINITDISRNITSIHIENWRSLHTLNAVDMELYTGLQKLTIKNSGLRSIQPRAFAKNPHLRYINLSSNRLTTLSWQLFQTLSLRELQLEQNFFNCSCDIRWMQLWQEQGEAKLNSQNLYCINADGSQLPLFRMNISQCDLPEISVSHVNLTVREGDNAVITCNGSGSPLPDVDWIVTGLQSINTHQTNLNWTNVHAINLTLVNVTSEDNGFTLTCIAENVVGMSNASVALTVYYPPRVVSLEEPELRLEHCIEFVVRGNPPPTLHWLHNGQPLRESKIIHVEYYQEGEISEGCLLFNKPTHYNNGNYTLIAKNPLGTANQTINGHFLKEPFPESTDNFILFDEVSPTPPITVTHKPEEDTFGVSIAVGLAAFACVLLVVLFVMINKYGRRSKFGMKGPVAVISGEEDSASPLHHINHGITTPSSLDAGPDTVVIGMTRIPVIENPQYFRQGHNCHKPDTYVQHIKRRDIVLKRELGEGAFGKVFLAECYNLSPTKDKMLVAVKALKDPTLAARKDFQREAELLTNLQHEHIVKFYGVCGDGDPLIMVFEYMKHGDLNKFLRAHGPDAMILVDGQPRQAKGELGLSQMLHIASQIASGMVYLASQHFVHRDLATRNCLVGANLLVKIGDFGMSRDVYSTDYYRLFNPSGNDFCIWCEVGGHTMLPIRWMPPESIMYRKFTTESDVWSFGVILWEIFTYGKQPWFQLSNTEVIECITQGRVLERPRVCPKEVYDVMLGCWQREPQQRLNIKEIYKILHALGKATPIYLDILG
Method: as §6, §7, §8
0.037 ng/μL TRKC protein kinase, 1 μM TK Substrate-biotin polypeptide substrate, 25.64 μM ATP, 1× enzymatic buffer, 5 mM MgCl2, and 1 mM DTT. The detection plate was White Proxiplate 384-Plus plate (PerkinElmer), and incubated at room temperature for 40 min, and the assay volume was 10 μL.
as §4
as §5, with “The” for “The value of”, “Ratio” for “Ratio minus the value of negative control wells without enzyme, then the obtained value”

T1 sequence (P04629 33-796 G595R): as the sequence (P04629 33-796) above, with G563R counted along it

| SMILES | IC50 [1] | IC50 (Recombinant human TRKB) | IC50 (Recombinant human TRKA) | IC50 [2] | IC50 (Recombinant human TRKC) |
| --- | --- | --- | --- | --- | --- |
| N#Cc1cnc2ccc(N3C[C@@H](F)C[C@@H]3c3cc(F)ccc3F)nc2c1-c1cnn(C2CCNCC2)c1 [Example 36, 6-((2R,4S)-2-(2,5-difluorophenyl)-4-fluoropyrrolidin-1-yl)-4-(1-(piperidin-4-yl)-1H-pyrazol-4-yl)-1,5-naphthyridin-3-carbonitrile] | < 10 nM | < 1 nM | < 1 nM | < 10 nM | < 1 nM |
| Fc1ccc(F)c([C@H]2C[C@H](F)CN2c2ccc3ncc(Cl)c(-c4cnn(C5CCNCC5)n4)c3n2)c1 [Example 41, 7-chloro-2-((2R,4S)-2-(2,5-difluorophenyl)-4-fluoropyrrolidin-1-yl)-8-(2-(piperidin-4-yl)-2H-1,2,3-triazol-4-yl)-1,5-naphthyridine] | < 10 nM | < 1 nM | < 1 nM | < 1 nM | < 1 nM |
| Fc1ccc(F)c([C@H]2C[C@H](F)CN2c2ccc3ncc(Cl)c(-c4cnn(C5CNC5)c4)c3n2)c1 [Example 22, 8-(1-(azetidine-3-yl)-1H-pyrazol-4-yl)-7-chloro-2-((2R,4S)-2-(2,5-difluorophenyl)-4-fluoropyrrolidin-1-yl)-1,5-naphthyridine] | < 1 nM | < 1 nM | < 1 nM | < 1 nM | < 1 nM |
| CN1CCC(n2cc(-c3c(Cl)cnc4ccc(N5C[C@@H](F)C[C@@H]5c5cc(F)ccc5F)nc34)cn2)CC1 [Example 43, 7-Chloro-2-((2R,4S)-2-(2,5-difluorophenyl)-4-fluoropyrrolidin-1-yl)-8-(1-(1-methylpiperidine-4-yl)-1H-pyrazol-4-yl)-1,5-naphthyridine] | < 10 nM | < 1 nM | < 1 nM | < 1 nM | < 1 nM |
| COc1ccc(F)cc1[C@H]1CCCN1c1ccc2ncc(Cl)c(-c3cnn(C4CCNCC4)c3)c2n1 [Example 33, (R)-7-chloro-2-(2-(5-fluoro-2-methoxyphenyl)pyrrolidin-1-yl)-8-(1-(piperidin-4-yl)-1H-pyrazol-4-yl)-1,5-naphthyridine] | < 10 nM | < 10 nM | < 1 nM | < 10 nM | < 50 nM |
| CN(C)S(=O)(=O)n1cc(-c2c(Cl)cnc3ccc(N4C[C@@H](F)C[C@@H]4c4cc(F)ccc4F)nc23)cn1 [Example 31] | < 10 nM | < 10 nM | < 1 nM | < 100 nM | < 10 nM |
| Fc1ccc(F)c([C@H]2CCCN2c2ccc3ncc(F)c(-c4cnn(C5CCNCC5)c4)c3n2)c1 [Example 21] | < 1 nM | < 1 nM | < 1 nM | < 10 nM | < 1 nM |
| OCCN1CCC(n2cc(-c3c(Cl)cnc4ccc(N5C[C@@H](F)C[C@@H]5c5cc(F)ccc5F)nc34)cn2)CC1 [Example 32, 2-(4-(4-(3-chloro-6-((2R,4S)-2-(2,5-difluorophenyl)-4-fluoropyrrolidin-1-yl)-1,5-naphthyridin-4-yl)-1H-pyrazol-1-yl)piperidin-1-yl)ethan-1-ol] | < 1 nM | < 1 nM | < 1 nM | < 1 nM | < 1 nM |

Second part, the molecule after the results:

| IC50 [1] | IC50 (Recombinant human TRKB) | IC50 (Recombinant human TRKA) | IC50 [2] | IC50 (Recombinant human TRKC) | SMILES |
| --- | --- | --- | --- | --- | --- |
| < 1 nM | < 1 nM | < 1 nM | < 10 nM | < 1 nM | CN1CCC(n2cc(-c3ccnc4ccc(N5C[C@@H](F)C[C@@H]5c5cc(F)ccc5F)nc34)cn2)CC1 [Example 13, 2-((2R,4S)-2-(2,5-difluorophenyl)-4-fluoropyrrolidin-1-yl)-8-(1-(1-methylpiperidin-4-yl)-1H-pyrazol-4-yl)-1,5-naphthyridine] |
| < 1 nM | < 1 nM | < 1 nM | < 10 nM | < 1 nM | O[C@H]1CCN(C(=S)Nc2ccnc3ccc(N4C[C@@H](F)C[C@@H]4c4cc(F)ccc4F)nc23)C1 [Example 79, (S)-N-(6-((2R,4S)-2-(2,5-difluorophenyl)-4-fluoropyrrolidin-1-yl)-1,5-naphthyridin-4-yl)-3-hydroxypyrrolidine-1-methylthioamide] |
| < 1 nM | < 1 nM | < 1 nM | < 10 nM | < 1 nM | O[C@H]1CCN(c2ncc(-c3ncnc4ccc(N5C[C@@H](F)C[C@@H]5c5cc(F)ccc5F)nc34)cn2)C1 [Example 72, (S)-1-(5-(6-((2R,4S)-2-(2,5-difluorophenyl)-4-fluoropyrrolidin-1-yl)pyrido[3,2-d]primidin-4-yl)pyrimidin-2-yl)pyrrolidin-3-ol] |
| < 1 nM | < 1 nM | < 1 nM | < 50 nM | < 1 nM | O=C(Nc1ccnc2ccc(N3CCC[C@@H]3c3cc(F)ccc3F)nc12)N1CC[C@H](O)C1 [Example 27, (S)—N-(6-((R)-2-(2,5-difluorophenyl)pyrrolidin-1-yl)-1,5-naphthyridin-4-yl)-3-hydroxypyrrolidin-1-carboxamide] |
| < 10 nM | < 1 nM | < 1 nM | < 10 nM | < 1 nM | Fc1ccc(F)c([C@H]2C[C@H](F)CN2c2ccc3ncc(Cl)c(-c4ccn(C5CCNCC5)c4)c3n2)c1 [Example 48, 7-chloro-2-((2R,4S)-2-(2,5-difluorophenyl)-4-fluoropyrrolidin-1-yl)-8-(1-(piperidin-4-yl)-1H-pyrrol-3-yl)-1,5-naphthyridine] |
| < 1 nM | < 1 nM | < 1 nM | < 1 nM | < 1 nM | O=C(Nc1ccnc2ccc(N3C[C@@H](F)C[C@@H]3c3cc(F)ccc3F)nc12)N1CC[C@H](O)C1 [Example 26, (S)—N-(6-((2R,4S)-2-(2,5-difluorophenyl)-4-fluoropyrrolidin-1-yl)-1,5-naphthyridin-4-yl)-3-hydroxypyrrolidin-1-carboxamide] |
| < 10 nM | < 1 nM | < 1 nM | < 10 nM | < 1 nM | O[C@H]1CCN(c2cnn(-c3ncnc4ccc(N5C[C@@H](F)C[C@@H]5c5cc(F)ccc5F)nc34)c2)C1 [Example 70, (S)-1-(1-(6-((2R,4S)-2-(2,5-difluorophenyl)-4-fluoropyrrolidin-1-yl)pyrido[3,2-d]pyrimidin-4-yl)-1H-pyrazol-4-yl)pyrrolidin-3-ol] |
| < 1 nM | < 1 nM | < 1 nM | < 1 nM | < 1 nM | Fc1ccc(F)c([C@H]2C[C@H](F)CN2c2ccc3ncc(F)c(-c4cnn(C5CNC5)c4)c3n2)c1 [Example 29, 8-(1-(azetidin-3-yl)-1H-pyrazol-4-yl)-2-((2R,4S)-2-(2,5-difluorophenyl)-4-fluoropyrrolidin-1-yl)-7-fluoro-1,5-naphthyridine] |
| < 1 nM | < 1 nM | < 1 nM | < 1 nM | < 1 nM | Fc1ccc(F)c([C@H]2C[C@H](F)CN2c2ccc3nccc(-c4cnn(C5CCOCC5)c4)c3n2)c1 [Example 12, 2-((2R,4S)-2-(2,5-difluorophenyl)-4-fluoropyrrolidin-1-yl)-8-(1-(tetrahydro-2H-pyran-4-yl)-1H-pyrazol-4-yl)-1,5-naphthyridine] |

From patent US20220017512A1 (SHANGHAI ENNOVABIO PHARMACEUTICALS CO., LTD., priority 2018, published 2022)
